IC50 data for 18 molecules are collected here from patent US10000507B2, “Furo- and thieno-pyridine carboxamide compounds useful as pim kinase inhibitors” (Incyte Corporation, priority 2013, dated 2018).

Holding throughout (format): biochemical
The target in one assay is Pim-1 (Homo sapiens (Human), UniProt P11309). Description: Pim-1 kinase assay. To be noted: 1 mM ATP, biotin-labeled BAD peptide substrate; read-out: Pim1 IC50. Put shortly:
(§1)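 Biotin-BAD peptide ([…]) phosphorylated with 1 mM ATP by 2.5 pM Pim-1 or 1.25 pM Pim-3, 1 h at 25 °C in Tris pH 7.5, MgCl2, DTT buffer. EDTA stop with anti-phospho-BAD (Ser112) antibody and AlphaScreen streptavidin donor/Protein-A acceptor beads; signal read after 1 h dark incubation.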

In another assay the target is Pim-3 (Homo sapiens (Human), UniProt Q86V86). Description: Pim-3 kinase assay. The settings on record: 1 mM ATP, biotin-labeled BAD peptide substrate; read-out: Pim3 IC50. In a few lines: as §1
Another assay addresses Pim-2 (Homo sapiens (Human), UniProt Q9P1W9). Description: Pim-2 kinase assay. To be noted: 1 mM ATP, fluorescein-labeled CREBtide peptide substrate; read-out: Pim2 IC50. In a few lines: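 Phosphorylated CREBtide was detected by terbium anti-pSer133 antibody TR-FRET after EDTA quench and 30 min at room temperature. Reactions ran 2 h at 25 °C with 1 mM ATP, 0.05 μM fluorescein-labelled substrate and 1 nM enzyme in pH 7.5 Tris buffer.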

Pim-2, sequence (Q9P1W9 whole entry): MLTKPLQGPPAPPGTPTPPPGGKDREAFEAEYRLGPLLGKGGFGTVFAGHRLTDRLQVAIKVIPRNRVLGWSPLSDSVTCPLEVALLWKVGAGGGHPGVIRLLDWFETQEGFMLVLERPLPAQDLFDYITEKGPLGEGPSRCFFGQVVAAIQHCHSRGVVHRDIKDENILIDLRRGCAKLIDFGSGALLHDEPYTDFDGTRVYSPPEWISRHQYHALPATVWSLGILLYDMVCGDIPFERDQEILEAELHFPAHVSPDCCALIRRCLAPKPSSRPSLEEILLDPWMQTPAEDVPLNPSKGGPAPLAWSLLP
Pim-1, sequence (P11309 whole entry): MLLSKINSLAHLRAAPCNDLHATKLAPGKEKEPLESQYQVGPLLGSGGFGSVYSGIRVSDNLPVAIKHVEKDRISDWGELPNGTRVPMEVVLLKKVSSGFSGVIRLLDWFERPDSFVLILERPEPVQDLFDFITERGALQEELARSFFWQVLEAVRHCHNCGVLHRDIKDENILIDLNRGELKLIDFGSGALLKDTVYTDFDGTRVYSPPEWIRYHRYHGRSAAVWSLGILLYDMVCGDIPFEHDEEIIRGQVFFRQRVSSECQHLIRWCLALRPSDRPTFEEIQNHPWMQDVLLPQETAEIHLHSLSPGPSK

For the molecule `CCCc1cnc2c(C(=O)Nc3cnccc3N3CC[C@@H](F)[C@H](N)C3)c(N)oc2c1` [Example 80, 2-Amino-N-{4-[(3R,4R)-3-amino-4-fluoro-piperidin-1-yl]pyridin-3-yl}-6-propylfuro[3,2-b]pyridine-3-carboxamide], the half-maximal inhibitory concentration (IC50) is no more than 10 nM on Pim-1, no more than 10 nM on Pim-3 and 100 to 1000 nM at Pim-2.
With `Nc1oc2c(Cl)ccnc2c1C(=O)Nc1cnccc1N1CCC[C@H](N)C1` [Example 81, 2-Amino-N-{4-[(3S)-3-aminopiperidin-1-yl]pyridin-3-yl}-7-chloro-furo[3,2-b]pyridine-3-carboxamide], the concentration for half-maximal inhibition (IC50) on Pim-1, at Pim-3 and on Pim-2 was no more than 10 nM each time.
For the molecule `CCCc1cnc2c(C(=O)Nc3cnccc3N3C[C@@H](N)[C@H](O)[C@@H](C4CC4)C3)c(N)oc2c1` [Example 82, 2-Amino-N-{4-[(3R,4R,5S)-3-amino-5-cyclopropyl-4-hydroxypiperidin-1-yl]pyridin-3-yl}-6-propylfuro[3,2-b]pyridine-3-carboxamide], the IC50 at Pim-1, on Pim-3 and at Pim-2 was no more than 10 nM throughout.
For `C[C@H]1C[C@@H](c2ccncc2NC(=O)c2c(N)oc3cccnc23)C[C@@H](N)[C@]1(C)O` [Example 83, 2-Amino-N-(4-((1R,3R,4R,5S)-3-amino-4-hydroxy-4,5-dimethylcyclohexyl)pyridin-3-yl)furo[3,2-b]pyridine-3-carboxamide], the IC50 is no more than 10 nM at Pim-1, no more than 10 nM on Pim-3 and 100 to 1000 nM on Pim-2.
For the molecule `CCCc1cnc2c(C(=O)Nc3cnccc3[C@H]3C[C@@H](N)[C@](C)(O)[C@@H](C)C3)c(N)oc2c1` [Example 84, 2-Amino-N-(4-((1R,3R,4R,5S)-3-amino-4-hydroxy-4,5-dimethylcyclohexyl)pyridin-3-yl)-6-propylfuro[3,2-b]pyridine-3-carboxamide], the IC50 on Pim-1 is no more than 10 nM; at Pim-3, no more than 10 nM; on Pim-2 it was 10 to 100 nM.
On to `CCCc1cnc2c(C(=O)Nc3cnccc3N3C[C@@H](N)[C@](C)(O)[C@@H](C)C3)c(N)oc2c1` [Example 85, 2-Amino-N-{4-[(3R,4R,5S)-3-amino-4-hydroxy-4,5-dimethylpiperidin-1-yl]pyridin-3-yl}-6-propylfuro[3,2-b]pyridine-3-carboxamide], for which the IC50 at Pim-1, on Pim-3 and at Pim-2 was no more than 10 nM throughout.
In the case of `CCCc1cnc2c(C(=O)Nc3cnccc3N3C[C@@H](N)[C@@](C)(O)[C@@H](C)C3)c(N)oc2c1` [Example 86, 2-Amino-N-{4-[(3R,4S,5S)-3-amino-4-hydroxy-4,5-dimethylpiperidin-1-yl]pyridin-3-yl}-6-propylfuro[3,2-b]pyridine-3-carboxamide], the IC50 on Pim-1, on Pim-3 and at Pim-2 was no more than 10 nM throughout.
Turning to `Nc1sc2cccnc2c1C(=O)Nc1cnsc1N1CCC[C@H](N)C1` [Example 88, 2-Amino-N-{5-[(3S)-3-aminopiperidin-1-yl]isothiazol-4-yl}thieno[3,2-b]pyridine-3-carboxamide], the IC50 was no more than 10 nM on Pim-1, no more than 10 nM on Pim-3 and 100 to 1000 nM at Pim-2.
Turning to `CC(C)c1cnc2c(C(=O)Nc3cnccc3N3C[C@@H](N)[C@H](O)[C@@H](C4CC4)C3)c(N)oc2c1` [Example 89, 2-Amino-N-{4-[(3R,4R,5S)-3-amino-5-cyclopropyl-4-hydroxypiperidin-1-yl]pyridin-3-yl}-6-isopropylfuro[3,2-b]pyridine-3-carboxamide], the IC50 on Pim-1, on Pim-3 and on Pim-2 was no more than 10 nM each time.
Turning to `Cn1ncc(NC(=O)c2c(N)oc3cc(C4CCOCC4)cnc23)c1N1C[C@@H](N)C[C@@H](C(F)(F)F)C1` [Example 90, 2-Amino-N-{5-[(3S,5R)-3-amino-5-(trifluoromethyl)piperidin-1-yl]-1-methyl-1H-pyrazol-4-yl}-6-(tetrahydro-2H-pyran-4-yl)furo[3,2-b]pyridine-3-carboxamide], the IC50 on Pim-1 is no more than 10 nM; on Pim-3 it was no more than 10 nM; on Pim-2, 10 to 100 nM.
In the case of `Nc1oc2cc(C3CCOCC3)cnc2c1C(=O)Nc1cnsc1N1C[C@@H](N)C[C@@H](C(F)(F)F)C1` [Example 91, 2-Amino-N-{5-[(3S,5R)-3-amino-5-(trifluoromethyl)piperidin-1-yl]isothiazol-4-yl}-6-(tetrahydro-2H-pyran-4-yl)furo[3,2-b]pyridine-3-carboxamide], the IC50 is no more than 10 nM at Pim-1, no more than 10 nM at Pim-3 and 10 to 100 nM on Pim-2.
In the case of `Nc1oc2cc(C3CCOCC3)cnc2c1C(=O)Nc1cnccc1N1C[C@@H](N)C[C@@H](C(F)(F)F)C1` [Example 92, 2-Amino-N-{4-[(3S,5R)-3-amino-5-(trifluoromethyl)piperidin-1-yl]pyridin-3-yl}-6-(tetrahydro-2H-pyran-4-yl)furo[3,2-b]pyridine-3-carboxamide], the IC50 on Pim-1, at Pim-3 and on Pim-2 was no more than 10 nM each time.
With `CN1CCC(c2cnc3c(C(=O)Nc4cnccc4N4C[C@@H](N)C[C@@H](C(F)(F)F)C4)c(N)oc3c2)CC1` [Example 93, 2-Amino-N-{4-[(3S,5R)-3-amino-5-(trifluoromethyl)piperidin-1-yl]pyridin-3-yl}-6-(1-methylpiperidin-4-yl)furo[3,2-b]pyridine-3-carboxamide], the IC50 on Pim-1 was no more than 10 nM; at Pim-3, no more than 10 nM; at Pim-2, 10 to 100 nM.
On to `CN1CCC(c2cnc3c(C(=O)Nc4cnn(C)c4N4C[C@@H](N)C[C@@H](C(F)(F)F)C4)c(N)oc3c2)CC1` [Example 94, 2-Amino-N-{5-[(3S,5R)-3-amino-5-(trifluoromethyl)piperidin-1-yl]-1-methyl-1H-pyrazol-4-yl}-6-(1-methylpiperidin-4-yl)furo[3,2-b]pyridine-3-carboxamide], for which the values for the IC50 at Pim-1, at Pim-3 and at Pim-2 were no more than 10 nM, no more than 10 nM and 10 to 100 nM, respectively.
For the molecule `C[C@@H]1C[C@H](N)CN(c2ccncc2NC(=O)c2c(N)oc3cc(C4CCOCC4)cnc23)C1` [Example 95, 2-Amino-N-{4-[(3S,5R)-3-amino-5-methylpiperidin-1-yl]pyridin-3-yl}-6-(tetrahydro-2H-pyran-4-yl)furo[3,2-b]pyridine-3-carboxamide], the IC50 on Pim-1 is no more than 10 nM; on Pim-3 it was no more than 10 nM; on Pim-2 it was 10 to 100 nM.
Turning to `C[C@@H]1C[C@H](N)CN(c2sncc2NC(=O)c2c(N)oc3cc(C4CCOCC4)cnc23)C1` [Example 96], the results for the IC50 at Pim-1, at Pim-3 and at Pim-2 were no more than 10 nM, no more than 10 nM and 10 to 100 nM, respectively.
For the molecule `C[C@@H]1C[C@H](N)CN(c2ccncc2NC(=O)c2c(N)oc3cc(C4CCC4)cnc23)C1` [Example 97, 2-Amino-N-{4-[(3S,5R)-3-amino-5-methylpiperidin-1-yl]pyridin-3-yl}-6-cyclobutylfuro[3,2-b]pyridine-3-carboxamide], the IC50 at Pim-1, at Pim-3 and at Pim-2 was no more than 10 nM each time.
`Nc1oc2cc(C3CCC3)cnc2c1C(=O)Nc1cnccc1N1C[C@@H](N)C[C@@H](C(F)(F)F)C1` [Example 98, 2-Amino-N-{4-[(3S,5R)-3-amino-5-(trifluoromethyl)piperidin-1-yl]pyridin-3-yl}-6-cyclobutylfuro[3,2-b]pyridine-3-carboxamide]: the IC50 at Pim-1, on Pim-3 and on Pim-2 was no more than 10 nM each time.

As usually defined, the IC50 is the midpoint of a concentration-inhibition curve.
